Source: paper PMC12203311, “Design, synthesis, in silico and in vitro evaluation of pyrrole–indole hybrids as dual tubulin and aromatase inhibitors with potent anticancer activities” (RSC Advances, 2025)

How the values were obtained:
MOLT-4 = test: NCI60 five-dose screen; assay type: cell-based; conditions: Homo sapiens, MOLT-4, leukemia; for CC50: read-out: LC50 (the source's name)
SF-539 = test: NCI60 five-dose screen; assay type: cell-based; conditions: Homo sapiens, SF-539, CNS cancer; for CC50: read-out: LC50 (the source's name)
U251 = test: NCI60 five-dose screen; assay type: cell-based; conditions: Homo sapiens, U-251, U251, CNS cancer; for CC50: read-out: LC50 (the source's name)
M14 = test: NCI60 five-dose screen; assay type: cell-based; conditions: Homo sapiens, M14, melanoma; for CC50: read-out: LC50 (the source's name)
MCF7 = test: NCI60 five-dose screen; assay type: cell-based; conditions: Homo sapiens, MCF7, breast cancer; for CC50: read-out: LC50 (the source's name)
[1] = test system: NCI60 human cancer cell line panel; test: NCI60 five-dose screen, ranges over the panel; assay type: cell-based; conditions: for GI50: five-dose experiment, all cell lines, read-out: GI50 values (range over the panel)
[2] = test system: T47D breast cancer cell line; test: Cytotoxicity MTT assay, T47D; assay type: cell-based, human; conditions: Homo sapiens, T47D; MTT, 48 hours
Experimental: (§1) T47D (ATCC HTB-133) was purchased from Biomedia (Thailand) Co., LTD. L929 (ATCC CCL-1) was received as a gift from Prof. Tanapat Palaga, Department of Microbiology, Faculty of Science, Chulalongkorn University, Bangkok, Thailand. The cells were cultured in Dulbecco's Modified Eagle's Medium (DMEM; Gibco) supplemented with 10% fetal bovine serum (FBS; HyClone), 100 U mL^−1 penicillin and 100 µg mL^−1 streptomycin (Gibco) at 37 °C with 5% CO2.
(§2) The antiproliferative activity was determined by MTT assay. Briefly, the cells were plated into a 96-well microplate at the density of 10 000 cells per well. The cells were allowed to grow overnight before treated with the solutions of compounds in culture medium at the designated concentrations for 48 hours. The medium was then replaced with MTT solution (0.5 mg mL^−1 MTT in culture medium) and incubated for 3 hours. A 100 µL of DMSO was used to dissolve the produced formazan. Absorbance at 570 nm was then measured using a microplate reader (Varioskan™ LUX multimode microplate reader, Thermo Scientific™). Percent viability was calculated relative to the vehicle control (DMSO).

[3] = Cytotoxicity MTT assay, L929; assay type: cell-based, mouse; conditions: mouse, L929 fibroblast cells; MTT, 48 hours
Experimental: as §1, §2

[4] = test system: L929 normal mouse fibroblast cell line; test: Cytotoxicity MTT assay, L929; assay type: cell-based; conditions: IC50 (L929)/IC50 (T47D)
Experimental: as §1, §2

SR = test: NCI60 five-dose screen; assay type: cell-based; conditions: Homo sapiens, leukemia; for CC50: read-out: LC50 (the source's name)
porcine brain tubulin = target: T1, porcine brain tubulin (Sus scrofa, UniProt P02550+P02554); test: Tubulin polymerisation assay (fluorescence-based); assay type: biochemical; conditions: 10 µM, 37 °C
T1 construct: a solution containing porcine brain tubulin (2 mg mL^−1); purchased Cytoskeleton BK011P; host or cells: porcine brain (tissue-purified)
T1 sequence (P02554 whole entry): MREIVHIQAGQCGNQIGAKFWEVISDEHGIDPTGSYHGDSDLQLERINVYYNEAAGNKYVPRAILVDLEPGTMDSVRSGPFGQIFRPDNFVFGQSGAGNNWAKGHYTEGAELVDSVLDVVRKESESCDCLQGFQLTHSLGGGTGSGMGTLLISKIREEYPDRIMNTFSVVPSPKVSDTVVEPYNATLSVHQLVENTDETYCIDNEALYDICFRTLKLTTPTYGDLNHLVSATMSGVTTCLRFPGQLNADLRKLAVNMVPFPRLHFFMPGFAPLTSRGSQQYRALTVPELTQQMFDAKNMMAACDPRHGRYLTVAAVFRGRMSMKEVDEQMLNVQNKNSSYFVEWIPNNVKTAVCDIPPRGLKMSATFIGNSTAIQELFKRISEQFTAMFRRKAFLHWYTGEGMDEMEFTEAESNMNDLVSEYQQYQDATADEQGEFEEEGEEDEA
T1 sequence (P02550 whole entry): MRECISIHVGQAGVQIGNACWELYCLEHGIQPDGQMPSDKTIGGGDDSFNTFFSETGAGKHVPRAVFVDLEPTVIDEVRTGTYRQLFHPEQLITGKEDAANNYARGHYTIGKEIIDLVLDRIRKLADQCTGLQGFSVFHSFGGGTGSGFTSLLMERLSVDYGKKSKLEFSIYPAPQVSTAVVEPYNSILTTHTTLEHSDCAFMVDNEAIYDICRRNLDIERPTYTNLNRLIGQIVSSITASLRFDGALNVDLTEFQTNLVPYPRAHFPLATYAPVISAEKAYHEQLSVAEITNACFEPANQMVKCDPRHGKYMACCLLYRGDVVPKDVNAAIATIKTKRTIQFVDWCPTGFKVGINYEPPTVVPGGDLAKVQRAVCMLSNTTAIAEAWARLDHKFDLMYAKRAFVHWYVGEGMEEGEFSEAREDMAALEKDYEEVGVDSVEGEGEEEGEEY
Experimental: The tubulin polymerisation experimental protocol followed the method described in this literature.[28] The experimental was using fluorescence-based assay kit (Cytoskeleton, catalog no. BK011P). In Brief, 5 µL of test compounds was added to a 96-well plate, then mix with 50 µL of a solution containing porcine brain tubulin (2 mg mL^−1) in buffer with 20% glycerol and 1 mM GTP. A microplate reader (Varioskan™ LUX multimode microplate reader, Thermo Scientific™) was used to measure fluorescence intensity every 60 seconds for 60 minutes, with excitation at 360 nm and emission at 450 nm, maintained at 37 °C throughout the experiment.

RFU in tubulin polymerization assay (porcine brain tubulin) [arbitrary units]	tubulin inhibition (porcine brain tubulin)	SMILES	GI50 (MOLT-4) [µM]	CC50 (MOLT-4) [µM]	GI50 (SF-539) [µM]	CC50 (SF-539) [µM]	GI50 (U251) [µM]	CC50 (U251) [µM]	GI50 (M14) [µM]	CC50 (M14) [µM]	GI50 (MCF7) [µM]	CC50 (MCF7) [µM]	GI50 [1] [µM]	IC50 [2] [µM]	IC50 at 48 h [3] [µM]	Selectivity index (SI) [4]	GI50 (SR) [µM]	CC50 (SR) [µM]	CC50 ([1]; HL-60 (TB), K-562, SR, NCI-H460, COLO 205, HCC-2998, HT29, SK-MEL-5, OVCAR-8, read-out: LC50 values (range over named cell lines)) [µM]
–	–	Cc1cc(C)c(/C=N/NC(=O)c2[nH]c3ccc(Br)cc3c2-c2ccccc2)[nH]1 [Derivative 3c, (E)-5-Bromo-N′-((3,5-dimethyl-1H-pyrrol-2-yl)methylene)-3-phenyl-1H-2-carbohydrazide]	2.29	> 100	2.93	32.4	3.21	35.7	4.45	49.9	2.3	37.2	1.77 to 8.25	11.6 ± 0.3	29.5 ± 12.6	2.54	–	–	–
–	–	O=C(N/N=C/c1cc(Br)c(Br)[nH]1)c1[nH]c2ccc(Br)cc2c1-c1ccccc1 [Derivative 3f, (E)-5-Bromo-N′-((4,5-dibromo-1H-pyrrol-2-yl)methylene)-3-phenyl-1H-indole-2-carbohydrazide]	3.38	> 100	1.78	15.7	2.95	36	2.81	66.1	1.99	33.7	0.53 to 6.8	19.1 ± 5.4	47.9 ± 0.5	2.51	–	–	–
~40	–	O=C(N/N=C/c1cc(Cl)c[nH]1)c1[nH]c2ccc(Br)cc2c1-c1ccccc1 [Derivative 3h, (E)-5-Bromo-N′-((4-chloro-1H-pyrrol-2-yl)methylene)-3-phenyl-1H-indole-2-carbohydrazide]	0.283	–	0.231	22.1	0.349	24.9	0.305	50.3	0.309	53.5	–	2.4 ± 1.8	53.7 ± 30.4	22.4	0.179	4.6	0.8 to 7.2
~55	–	CCc1ccc(/C=N/NC(=O)c2[nH]c3ccc(Br)cc3c2-c2ccccc2)[nH]1 [Derivative 3s, (E)-5-Bromo-N′-((5-ethyl-1H-pyrrol-2-yl)methylene)-3-phenyl-1H-indole-2-carbohydrazide]	0.464	> 100	0.225	29.8	0.329	36.7	0.318	38.7	0.369	45.9	–	3.8 ± 1	19.5 ± 11.8	5.13	0.419	> 100	–
~55	–	CCc1c[nH]c(/C=N/NC(=O)c2[nH]c3ccc(Br)cc3c2-c2ccccc2)c1 [Derivative 3t, (E)-5-Bromo-N′-((4-ethyl-1H-pyrrol-2-yl)methylene)-3-phenyl-1H-indole-2-carbohydrazide]	0.399	94.2	0.203	19.6	0.373	38.2	0.337	38.4	0.375	33.8	–	4.6 ± 2.9	7.1 ± 3.6	1.54	0.446	> 100	–
–	weak tubulin inhibitors	CCc1cc[nH]c1/C=N/NC(=O)c1[nH]c2ccc(Br)cc2c1-c1ccccc1 [Derivative 3u, (E)-5-Bromo-N′-((3-ethyl-1H-pyrrol-2-yl)methylene)-3-phenyl-1H-indole-2-carbohydrazide]	2.37	55.1	3.17	35.6	2.15	37.8	1.62	23.7	2.63	37.5	–	6.2 ± 3.6	12.2 ± 0.7	1.97	2.02	> 100	–
